Assay results reported in patent EP0811621A2, “Carbamoyl substituted oxazoles as thromboxane receptor antagonists” (ELI LILLY AND COMPANY, priority 1996, dated 1997).

Tests used:
[1] = test system: TXA2/PGH2 receptor-induced human platelet aggregation; experiment: Platelet Aggregation Studies (U46619-induced aggregation in platelet-rich plasma); format: cell-based; conditions: read-out: IC50, concentration of test compound required to inhibit U46619-induced platelet aggregation by 50%, U46619 (1 micromolar), 1 min preincubation at 37 °C
Description: (§1) Measurement of Thromboxane Receptor Antagonism:
(§2) • 1. Receptor Binding Assay. Membranes from outdated human platelets were prepared as previously described (Mais, D. E., et al., Eur. J. Pharmacol. (1992), 227, 267-274). Incubations (220 µL) containing 10 µg of platelet membranes were performed in siliconized glass tubes (12 x 75 mm) at 30 °C for 30 min. The incubation media consisted of 10 mM Hepes, 2 mM CHAPS, 10 µM Indomethacin (pH = 7.4), ∼0.05 nM (∼25000 cpm) of [^125I]IBOP per tube, and varying concentrations of competing ligands ranging from 10^-10 to 10^-5 M. The reaction was terminated by addition of 4 mL of ice cold buffer (25 mM Tris) at pH 7.4, followed by rapid filtration through Whatman GF/C glass filters pre-soaked in 0.3% polyethyleneamine (Whatman, Inc., Clifton, NJ) using a Brandel M-24 cell harvester (Gaithersburg, MD). Non-specific binding was defined as that amount of radioactivity bound in the presence of a large molar excess (10 µM) of SQ29548, a potent TXA2/PGH2 receptor antagonist. The binding in this assay is defined in terms of the dissociation constant Kd. […] Platelet Aggregation Studies. The ability of a test compound to antagonize TXA2/PGH2 receptor-induced human platelet aggregation was studied in the following manner. Blood was collected from volunteers who denied taking any medication known to influence platelet aggregation within the previous 10 days. […] Platelet-rich plasma was prepared by centrifugation at 100 x g for 12 min, and platelet-poor plasma was prepared by centrifugation at 12,000 x g for 2 min. Receptor activation and subsequent platelet aggregation was induced by the addition of the stable analog of TXA2/PGH2, U46619 (1 micromolar). Aggregation was monitored in a Biodata PAP4 platelet aggregation profiler for 3 min after the addition of U46619. Test compound or vehicle was preincubated with platelet-rich plasma for 1 min at 37 °C prior to the induction of aggregation with U46619.

[2] = target: T1, thromboxane synthase (Homo sapiens, UniProt P24557); experiment: Thromboxane synthase inhibition in vitro (whole human blood, serum TXB2 by radioimmunoassay); format: cell-based; conditions: 30 min at 37 °C
T1 construct: from tissue; host or cells: whole human blood
T1 sequence (P24557 1-533): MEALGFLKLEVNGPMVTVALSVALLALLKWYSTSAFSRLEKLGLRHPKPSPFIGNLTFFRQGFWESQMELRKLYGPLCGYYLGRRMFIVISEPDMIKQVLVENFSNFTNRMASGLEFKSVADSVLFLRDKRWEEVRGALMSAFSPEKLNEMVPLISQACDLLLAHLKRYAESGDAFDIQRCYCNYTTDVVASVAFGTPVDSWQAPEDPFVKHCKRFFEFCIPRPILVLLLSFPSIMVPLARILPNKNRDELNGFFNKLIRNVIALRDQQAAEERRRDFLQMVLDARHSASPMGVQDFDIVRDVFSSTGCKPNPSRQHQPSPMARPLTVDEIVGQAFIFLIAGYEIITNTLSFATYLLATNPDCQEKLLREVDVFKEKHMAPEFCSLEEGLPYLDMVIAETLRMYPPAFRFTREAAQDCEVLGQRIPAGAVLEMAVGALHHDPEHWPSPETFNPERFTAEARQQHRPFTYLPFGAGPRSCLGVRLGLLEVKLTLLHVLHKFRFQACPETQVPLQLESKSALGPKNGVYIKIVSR
Description: Measurement of Thromboxane Synthase Inhibition and Prostacyclin Formation:
(§3) • 1. In vitro Experiments. The ability of a test compound to inhibit thromboxane synthase, as well as to change the amount of prostacyclin formed, were measured using published methods. […] Serum TXB2 and 6-keto-PGF1a, the stable metabolites of TXA2 and prostacyclin (PGI2), respectively, were measured by radioimmunoassay as described (Jakubowski, J.A., et al., Arteriosclerosis, (1987), 7, 599-604). The ability of a test compound to inhibit thromboxane synthase is expressed in the form of its IC50. […] Sprague Dawley rats (300 g males) were dosed by oral gavage with either vehicle (5% acacia) or 1-10 mg/kg test compound. Blood samples were collected 1 h after dosing. Animals were anesthetized (sodium pentobarbitol, 87 mg/kg i.p.) 15 min before sample collection. Blood samples were obtained by cardiac puncture via a butterfly catheter and the first mL of blood was discarded. Blood samples were divided into duplicates and incubated at 37 °C for 1 h in 13x100 mm glass tubes. Serum was separated by centrifugation at 2000 x g for 15 min at 25 °C, transferred to polypropylene tubes, and stored at -20 °C for subsequent assay using the methods referenced above.

[3] = test system: pithed rats; experiment: Absence of Agonist Activity (pressor response after i.v. administration); format: in vivo
[4] = test system: TXA2 formation; experiment: Ex vivo inhibition of TXA2 formation following oral administration; format: in vivo; conditions: Rattus norvegicus, 1 h, Sprague Dawley rats, oral gavage, one hour after dosing
Description: as §3

[5] = target: T2, TXA2/PGH2 receptor (Homo sapiens, UniProt P21731); experiment: Receptor Binding Assay ([125I]IBOP, platelet membranes); conditions: 30 °C for 30 min
T2 construct: Membranes from outdated human platelets were prepared as previously described; from tissue; host or cells: human platelets (membranes)
T2 sequence (P21731 1-343): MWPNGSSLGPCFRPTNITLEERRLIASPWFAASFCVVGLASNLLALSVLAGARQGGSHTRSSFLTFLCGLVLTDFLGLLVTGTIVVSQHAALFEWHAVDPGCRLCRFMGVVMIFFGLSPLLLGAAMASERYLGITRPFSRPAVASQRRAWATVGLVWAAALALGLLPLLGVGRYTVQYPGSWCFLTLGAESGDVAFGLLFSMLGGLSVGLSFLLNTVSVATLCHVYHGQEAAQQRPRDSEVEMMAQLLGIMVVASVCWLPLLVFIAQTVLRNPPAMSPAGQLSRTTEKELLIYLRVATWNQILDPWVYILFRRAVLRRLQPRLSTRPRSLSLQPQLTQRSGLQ
Description: as §1, §2

| Compound | IC50 [1] [nM] | IC50 [2] [nM] | Kd [5] [nM] | further results |
| --- | --- | --- | --- | --- |
| O=C(O)CCCC/C=C(\c1ccc(-c2nc(C(=O)N[C@@H]3C[C@H]3c3ccccc3)co2)cc1)c1cccnc1 (single isomer, unassigned) [Example 19, (+)-(E)-7-[4-[4-[[(2-(trans)Phenylcyclopropyl)amino]carbonyl]-2-oxazolyl]phenyl]-7-(3-pyridyl)hept-6-enoic Acid] | 5000 |  |  |  |
| O=C(O)CCCC/C=C(\c1ccc(C2=N[C@H](C(=O)NCCCCC3CCCCC3)CO2)cc1)c1cccnc1 [Example 1, (4S)-(E)-7-[4-[4-[[(4-Cyclohexylbutyl)amino]carbonyl]-4,5-dihydro-2-oxazolyl]phenyl]-7-(3-pyridyl)hept-6-enoic Acid] |  | 82.1 |  |  |
| O=C(O)CCCC/C=C(\c1ccc(-c2nc(C(=O)NCCCCC3CCCCC3)co2)cc1)c1cccnc1 [Example 2, (E)-7-[4-[4-[[(4-Cyclohexylbutyl)amino]carbonyl]-2-oxazolyl]phenyl]-7-(3-pyridyl)hept-6-enoic Acid] | 400 | 55 | 9.9 | pressor response (TXA2 agonist activity) ([3]; pithed rats, i.v., doses up to 10 mg/kg): absence of a pressor response; inhibition at 3 mg/kg [4]: > 95% |
| O=C(O)CCCC/C=C(/c1ccc(C2=N[C@H](C(=O)NCCCCC3CCCCC3)CO2)cc1)c1cccnc1 [Example 3, (4S)-(Z)-7-[4-[4-[[(4-Cyclohexylbutyl)amino]carbonyl]-4,5-dihydro-2-oxazolyl]phenyl]-7-(3-pyridyl)hept-6-enoic Acid] |  | > 10000 |  |  |
| O=C(O)CCCC/C=C(/c1ccc(-c2nc(C(=O)NCCCCC3CCCCC3)co2)cc1)c1cccnc1 [Example 4, (Z)-7-[4-[4-[[(4-Cyclohexylbutyl)amino]carbonyl]-2-oxazolyl]phenyl]-7-(3-pyridyl)hept-6-enoic Acid] |  | > 10000 |  |  |
| CC(OCCCNC(=O)c1coc(-c2ccc(/C(=C\CCCCC(=O)O)c3cccnc3)cc2)n1)C1CCCCC1 (centres unmarked) [Example 26, (E)-7-[4-[4-[[[3-(1-Cyclohexylethoxy)propyl]amino]carbonyl)-2-oxazolyl]phenyl]-7-(3-pyridyl)hept-6-enoic Acid] | 5000 | 11.5 | 58.2 |  |
| O=C(O)CCCC/C=C(\c1ccc(-c2nc(C(=O)NCCCN3CCOCC3)co2)cc1)c1cccnc1 [Example 27, (E)-7-[4-[4-[[(3-Morpholinopropyl)amino]carbonyl]-2-oxazolyl]phenyl]-7-(3-pyridyl)hept-6-enoic Acid] |  |  | > 10000 |  |
| O=C(O)CCCC/C=C(\c1ccc(-c2nc(C(=O)NCCCCOc3ccccc3)co2)cc1)c1cccnc1 [Example 30, (E)-7-[4-[4-[[(4-Phenoxybutyl)amino]carbonyl]-2-oxazolyl]phenyl]-7-(3-pyridyl)hept-6-enoic Acid] | 500 | 48.9 | 52.2 |  |
| O=C(O)CCC/C=C\C[C@H]1[C@@H]2CC[C@@H](C2)[C@@H]1NS(=O)(=O)c1ccccc1 [Example S-145, reference compound] |  |  |  | mean arterial pressure ([3]; one minute after dosing at 0.1 mg/kg i.v.): transient, but significant, increase |
